Experimental data from patent US9061030B2, “sGC stimulators” (IRONWOOD PHARMACEUTICALS, INC., priority 2010, dated 2015).

Target: T1, soluble guanylate cyclase (sGC) (Homo sapiens, UniProt Q02108+Q02153)
T1 construct: endogenously expressing soluble guanylate cyclase (sGC); endogenous in cells; host or cells: HEK293
T1 sequence (Q02153 1-619): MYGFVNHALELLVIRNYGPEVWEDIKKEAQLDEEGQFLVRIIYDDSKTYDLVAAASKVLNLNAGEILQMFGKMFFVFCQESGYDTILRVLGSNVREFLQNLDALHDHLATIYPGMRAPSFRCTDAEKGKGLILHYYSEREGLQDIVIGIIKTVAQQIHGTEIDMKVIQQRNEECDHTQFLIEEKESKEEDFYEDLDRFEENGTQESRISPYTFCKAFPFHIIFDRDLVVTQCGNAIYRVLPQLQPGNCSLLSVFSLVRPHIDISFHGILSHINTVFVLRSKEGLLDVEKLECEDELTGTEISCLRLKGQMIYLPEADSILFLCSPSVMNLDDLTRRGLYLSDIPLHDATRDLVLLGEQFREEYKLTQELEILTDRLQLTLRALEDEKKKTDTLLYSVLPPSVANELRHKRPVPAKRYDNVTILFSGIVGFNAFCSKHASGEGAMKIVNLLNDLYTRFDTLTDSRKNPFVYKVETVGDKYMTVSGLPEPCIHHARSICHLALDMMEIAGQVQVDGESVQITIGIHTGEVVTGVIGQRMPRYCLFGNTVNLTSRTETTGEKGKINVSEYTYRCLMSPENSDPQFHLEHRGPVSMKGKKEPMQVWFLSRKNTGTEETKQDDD
T1 sequence (Q02108 1-690): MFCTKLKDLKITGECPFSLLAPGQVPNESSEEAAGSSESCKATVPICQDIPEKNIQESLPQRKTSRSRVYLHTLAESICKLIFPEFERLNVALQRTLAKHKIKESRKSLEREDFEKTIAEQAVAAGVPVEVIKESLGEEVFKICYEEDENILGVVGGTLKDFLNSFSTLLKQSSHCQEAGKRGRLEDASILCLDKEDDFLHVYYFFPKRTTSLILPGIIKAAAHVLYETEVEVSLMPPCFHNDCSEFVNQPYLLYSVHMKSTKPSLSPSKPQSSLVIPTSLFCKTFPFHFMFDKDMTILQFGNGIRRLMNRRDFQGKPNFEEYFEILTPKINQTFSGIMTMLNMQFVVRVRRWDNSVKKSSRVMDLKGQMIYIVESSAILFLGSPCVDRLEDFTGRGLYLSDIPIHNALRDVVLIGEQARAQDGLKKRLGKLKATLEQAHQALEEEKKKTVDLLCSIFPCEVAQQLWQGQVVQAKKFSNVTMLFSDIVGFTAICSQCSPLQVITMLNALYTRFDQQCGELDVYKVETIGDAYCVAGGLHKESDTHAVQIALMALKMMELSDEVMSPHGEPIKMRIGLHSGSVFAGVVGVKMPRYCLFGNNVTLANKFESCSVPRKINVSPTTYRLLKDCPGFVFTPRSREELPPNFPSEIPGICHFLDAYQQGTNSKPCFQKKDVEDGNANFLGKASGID
Test: sGC-HEK-cGMP assay
Format: cell-based
Details: HEK293 cells, 10 μM SNP, percentage of sGC activity obtained with positive control BAY 41-2272 (= 100%); for Emax at 10 µM: compound at 10 μM; for Emax at 30 µM: compound at 30 μM
Procedure, shortened: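 HEK293 cells endogenously expressing sGC, preincubated 15 min at 37 °C with 0.5 mM IBMX, then exposed to compound plus 10 μM sodium nitroprusside for 10 min at 37 °C. Reaction stopped and cells lysed with 0.1 M HCl; cGMP quantified by LC/MS against a standard curve; EC50 from concentration-response curves.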

| Emax at 10 µM | Emax at 30 µM | SMILES |
| --- | --- | --- |
| 20 to 40% | 20 to 40% | Fc1ccccc1Cn1nc(-c2ncccn2)nc1-c1cocn1 [Compound I-46] |
| 0 to 5% | 20 to 40% | Fc1ccccc1Cn1nc(-c2ncccn2)nc1-c1cscn1 [Compound I-3] |
| 20 to 40% | 10 to 20% | Fc1ccccc1Cn1nc(-c2cscn2)nc1-c1nccs1 [Compound I-40] |
| 40 to 60% | 60 to 80% | Nc1ccnc(-c2nc(-c3nccs3)n(Cc3ccccc3F)n2)n1 [Compound I-48, 2-(1-(2-fluorobenzyl)-5-(thiazol-2-yl)-1H-1,2,4-triazol-3-yl)pyrimidin-4-amine] |
| 20 to 40% | 40 to 60% | COC(=O)N(C)c1c(N)nc(-c2nc(-c3nccs3)n(Cc3ccccc3F)n2)nc1N [Compound I-61, methyl 4,6-diamino-2-(1-(2-fluorobenzyl)-5-(thiazol-2-yl)-1H-1,2,4-triazol-3-yl)pyrimidin-5-yl(methyl)carbamate] |
| 20 to 40% | 40 to 60% | Fc1ccccc1Cn1nc(-c2ccccn2)nc1-c1cocn1 [Compound I-12, 4-(1-(2-fluorobenzyl)-3-(pyridin-2-yl)-1H-1,2,4-triazol-5-yl)oxazole] |
| 40 to 60% | 60 to 80% | Nc1ccnc(-c2nc(-c3nccs3)n(Cc3ccccc3F)n2)c1 [Compound I-44] |
| 40 to 60% | 60 to 80% | Nc1ccnc(-c2nc(-c3cscn3)n(Cc3ccccc3F)n2)c1 [Compound I-53, 2-(1-(2-fluorobenzyl)-5-(thiazol-4-yl)-1H-1,2,4-triazol-3-yl)pyridin-4-amine] |
| 20 to 40% | 40 to 60% | Fc1ccccc1Cn1nc(-c2ccccn2)nc1-c1nccs1 [Compound I-25] |
| 20 to 40% | 40 to 60% | Fc1ccccc1Cn1nc(-c2ccccn2)nc1-c1cscn1 [Compound I-4] |
| 5 to 10% | 20 to 40% | Fc1ccccc1Cn1nc(-c2ccccn2)nc1-c1ccccn1 [Compound I-1] |
| 20 to 40% | 20 to 40% | Fc1ccccc1Cn1nc(-c2ccccn2)nc1-c1ncco1 [Compound I-6] |
| 10 to 20% | 20 to 40% | Fc1ccccc1Cn1nc(-c2ncccn2)nc1-c1nccs1 [Compound I-30] |
| 40 to 60% | 60 to 80% | Fc1ccccc1Cn1nc(-c2nccs2)nc1-c1cscn1 [Compound I-41] |
| 40 to 60% | 20 to 40% | Fc1ccc(-c2nc(-c3nccs3)n(Cc3ccccc3F)n2)nc1 [Compound I-38] |
| 20 to 40% | 20 to 40% | Fc1ccccc1Cn1nc(-c2ccccn2)nc1-n1cncn1 [Compound I-50, 2′-(2-fluorobenzyl)-5′-(pyridin-2-yl)-2′H-1,3′-bi(1′,2′,4-triazole)] |
